# Laboratory results reported in ChEMBL document CHEMBL4732086, “Targeting nuclear protein TDP-43 by cell division cycle kinase 7 inhibitors: A new therapeutic approach for amyotrophic lateral sclerosis” (Eur J Med Chem, 2021).
# Activity calls are given as the source filed them. The calls are words filed in the database; no cut-off is given here.
# Assays:
# [1] = biological target: Cell division cycle 7-related protein kinase (Homo sapiens) (UniProt O00311); experiment: Inhibition of human CDC7 in human SH-SY5Y cells assessed as prevention of ethacrynic acid-induced cell death preincubated for 1 hr followed by incubation with ethacrynic acid for 24 hrs measured at 10 uM by MTT assay relative to control; assay type: cell-based
# [2] = biological target: CDC7/DBF4 (Cell division cycle 7-related protein kinase/Activator of S phase kinase) (Homo sapiens, UniProt O00311); experiment: Inhibition of recombinant human CDC7/Dbf4 expressed in baculovirus infected Sf9 insect cells assessed as inhibition of fluorescein labelled substrate phosphorylation in presence of ATP measured after 60 mins by TR-FRET assay
# [3] = biological target: CDC7/DBF4 (Cell division cycle 7-related protein kinase/Activator of S phase kinase) (Homo sapiens) (UniProt Q9UBU7+O00311); experiment: Inhibition of recombinant human CDC7/Dbf4 expressed in baculovirus infected Sf9 insect cells assessed as inhibition of fluorescein labelled substrate phosphorylation in presence of ATP at 10 uM measured after 60 mins by TR-FRET assay
# Chain of CDC7/DBF4 (Cell division cycle 7-related protein kinase/Activator of S phase kinase) (Homo sapiens) (O00311 whole entry, looked up): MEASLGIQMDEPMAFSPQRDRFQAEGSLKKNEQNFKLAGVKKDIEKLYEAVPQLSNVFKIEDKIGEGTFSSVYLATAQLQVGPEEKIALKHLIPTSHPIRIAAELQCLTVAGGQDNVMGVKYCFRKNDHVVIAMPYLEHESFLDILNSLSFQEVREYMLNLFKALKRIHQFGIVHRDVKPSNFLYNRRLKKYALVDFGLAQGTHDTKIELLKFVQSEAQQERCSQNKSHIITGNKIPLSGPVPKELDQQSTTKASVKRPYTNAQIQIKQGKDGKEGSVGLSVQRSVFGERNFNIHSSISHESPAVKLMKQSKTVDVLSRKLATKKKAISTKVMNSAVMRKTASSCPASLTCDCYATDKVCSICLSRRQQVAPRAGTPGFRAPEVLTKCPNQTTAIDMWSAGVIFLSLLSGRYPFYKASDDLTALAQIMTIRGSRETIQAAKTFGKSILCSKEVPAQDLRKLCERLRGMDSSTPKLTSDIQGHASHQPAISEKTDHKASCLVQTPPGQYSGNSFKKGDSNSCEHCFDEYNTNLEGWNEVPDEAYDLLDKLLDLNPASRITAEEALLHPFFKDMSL
# Chain of CDC7/DBF4 (Cell division cycle 7-related protein kinase/Activator of S phase kinase) (Homo sapiens) (Q9UBU7 whole entry, looked up): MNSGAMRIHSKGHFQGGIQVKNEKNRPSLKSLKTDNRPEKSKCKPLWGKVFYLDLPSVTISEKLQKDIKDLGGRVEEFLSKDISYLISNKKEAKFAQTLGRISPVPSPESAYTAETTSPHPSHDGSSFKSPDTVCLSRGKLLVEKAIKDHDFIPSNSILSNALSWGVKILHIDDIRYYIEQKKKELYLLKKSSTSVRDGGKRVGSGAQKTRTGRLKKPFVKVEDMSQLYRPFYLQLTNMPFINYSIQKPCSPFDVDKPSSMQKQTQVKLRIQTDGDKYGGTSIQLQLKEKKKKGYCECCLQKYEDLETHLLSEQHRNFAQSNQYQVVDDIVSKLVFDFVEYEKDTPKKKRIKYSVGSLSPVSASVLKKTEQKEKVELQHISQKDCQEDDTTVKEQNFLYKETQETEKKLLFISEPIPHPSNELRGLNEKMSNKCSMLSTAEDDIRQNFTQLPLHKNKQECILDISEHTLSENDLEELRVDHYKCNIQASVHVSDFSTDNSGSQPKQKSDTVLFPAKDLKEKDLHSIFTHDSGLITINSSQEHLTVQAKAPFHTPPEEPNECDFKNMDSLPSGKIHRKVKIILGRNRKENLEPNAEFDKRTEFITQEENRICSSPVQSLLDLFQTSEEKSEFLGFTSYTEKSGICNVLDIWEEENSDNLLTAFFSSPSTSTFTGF
# Chain of Cell division cycle 7-related protein kinase (Homo sapiens) (O00311 whole entry, looked up): as the sequence (O00311 whole entry, looked up) above
# Chain of CDC7/DBF4 (Cell division cycle 7-related protein kinase/Activator of S phase kinase) (Q9UBU7 whole entry): as the sequence (Q9UBU7 whole entry, looked up) above
# Chain of CDC7/DBF4 (Cell division cycle 7-related protein kinase/Activator of S phase kinase) (O00311 whole entry): as the sequence (O00311 whole entry, looked up) above
IC50 [2] [nM],inhibition [3] [%],Compound,inhibition [1]
440,–,Brc1ccc(CSc2[nH]cnc3ncnc2-3)cc1,Active
2120,–,O=C(CSc1ncnc2[nH]cnc12)c1ccc(Br)cc1,–
90,–,Clc1ccccc1CSc1ncnc2[nH]cnc12,Active
250,–,FC(F)(F)c1ccccc1CSc1ncnc2[nH]cnc12,Active
–,12,Fc1ccc(CCSc2ncnc3c2ncn3CCc2ccc(F)cc2)cc1,–
190,–,Clc1ccccc1CCSc1ncnc2[nH]cnc12,Active
360,–,Fc1cccc(CSc2ncnc3[nH]cnc23)c1,Active
3110,–,O=C(CSc1[nH]cnc2ncnc1-2)c1ccc([N+](=O)[O-])cc1,–
140,–,CSc1ccc(CSc2ncnc3[nH]cnc23)cc1,Active
320,–,FC(F)(F)c1cccc(CSc2ncnc3[nH]cnc23)c1,Active
3060,–,Clc1cccc(CNc2ncnc3nc[nH]c23)c1,–
360,–,FC(F)(F)c1ccc(CSc2ncnc3[nH]cnc23)cc1,Active
910,–,Brc1ccc(COc2ncnc3[nH]cnc23)cc1,Active
–,11,Brc1cccc(CSc2ncnc3sccc23)c1,–
–,4,Ic1ccccc1CSc1ncnc2c1ncn2Cc1ccccc1I,–
170,–,c1ccc(COc2[nH]cnc3ncnc2-3)cc1,–
–,18,c1ccc(CSc2ncnc3sccc23)cc1,–
190,–,O=[N+]([O-])c1cccc(CSc2ncnc3[nH]cnc23)c1,–
230,–,c1ccc(CSc2ncnc3[nH]ccc23)cc1,Active
–,30,Clc1cccc(CSc2ncnc3c2ncn3Cc2cccc(Cl)c2)c1,–
–,7,Clc1ccccc1CSc1ncnc2c1ncn2Cc1ccccc1Cl,–
4150,–,O=C(CSc1[nH]cnc2ncnc1-2)c1ccc(Cl)cc1,–
290,–,N#Cc1ccc(CSc2ncnc3[nH]cnc23)cc1,–

IC50 [2] [nM],inhibition [3] [%],Compound,inhibition [1]
–,8,Clc1cccc(CCSc2ncnc3c2ncn3CCc2cccc(Cl)c2)c1,–
340,–,N#Cc1cccc(CSc2ncnc3[nH]cnc23)c1,–
240,–,COc1cccc(CSc2ncnc3[nH]cnc23)c1,Active
–,0,c1ccc(CSc2ncnc3c2ncn3Cc2ccccc2)cc1,–
–,3,Clc1ccc(CCSc2ncnc3c2ncn3CCc2ccc(Cl)cc2)cc1,–
1720,–,COc1ccc(Sc2ncnc3[nH]cnc23)cc1,–
80,–,Ic1cccc(CSc2ncnc3[nH]cnc23)c1,Active
–,9,FC(F)(F)c1ccccc1CSc1ncnc2c1ncn2Cc1ccccc1C(F)(F)F,–
140,–,Clc1ccc(CCSc2ncnc3[nH]cnc23)cc1,Active
580,–,Ic1ccccc1CSc1ncnc2[nH]cnc12,Active
390,–,Brc1cccc(CSc2ncnc3[nH]ccc23)c1,–
300,–,Clc1cccc(CCSc2ncnc3[nH]cnc23)c1,Active
390,–,Fc1ccc(CCSc2ncnc3[nH]cnc23)cc1,Active
190,–,Clc1cccc(COc2ncnc3[nH]cnc23)c1,Active
130,–,Brc1cccc(CSc2ncnc3[nH]cnc23)c1,–
300,–,Ic1ccc(CSc2ncnc3[nH]cnc23)cc1,Active
300,–,OCc1ccc(CSc2ncnc3[nH]cnc23)cc1,–
470,–,CC(=O)Nc1ccc(CSc2ncnc3[nH]cnc23)cc1,–
180,–,Clc1ccc(CSc2[nH]cnc3ncnc2-3)cc1,Active
130,–,O=[N+]([O-])c1ccc(CSc2ncnc3[nH]cnc23)cc1,Active
1380,–,Brc1ccc(Sc2ncnc3[nH]cnc23)cc1,–
–,4,Clc1ccccc1CCSc1ncnc2c1ncn2CCc1ccccc1Cl,–
